# Source: patent publication EP2970215B1, “PYRROLIDINE DERIVATIVES, PHARMACEUTICAL COMPOSITIONS CONTAINING THEM, AND THEIR USE IN THERAPY” (AbbVie Deutschland GmbH & Co. KG, priority 2013, dated 2014)
# Biological target: T1, human GlyT1c transporter (Homo sapiens, UniProt P48067)
# T1 construct: expressed in transfected cells; host or cells: CHO cells (recombinant; line hGlyT1c_5_CHO is named for the uptake assay)
# T1 sequence (P48067 1-706): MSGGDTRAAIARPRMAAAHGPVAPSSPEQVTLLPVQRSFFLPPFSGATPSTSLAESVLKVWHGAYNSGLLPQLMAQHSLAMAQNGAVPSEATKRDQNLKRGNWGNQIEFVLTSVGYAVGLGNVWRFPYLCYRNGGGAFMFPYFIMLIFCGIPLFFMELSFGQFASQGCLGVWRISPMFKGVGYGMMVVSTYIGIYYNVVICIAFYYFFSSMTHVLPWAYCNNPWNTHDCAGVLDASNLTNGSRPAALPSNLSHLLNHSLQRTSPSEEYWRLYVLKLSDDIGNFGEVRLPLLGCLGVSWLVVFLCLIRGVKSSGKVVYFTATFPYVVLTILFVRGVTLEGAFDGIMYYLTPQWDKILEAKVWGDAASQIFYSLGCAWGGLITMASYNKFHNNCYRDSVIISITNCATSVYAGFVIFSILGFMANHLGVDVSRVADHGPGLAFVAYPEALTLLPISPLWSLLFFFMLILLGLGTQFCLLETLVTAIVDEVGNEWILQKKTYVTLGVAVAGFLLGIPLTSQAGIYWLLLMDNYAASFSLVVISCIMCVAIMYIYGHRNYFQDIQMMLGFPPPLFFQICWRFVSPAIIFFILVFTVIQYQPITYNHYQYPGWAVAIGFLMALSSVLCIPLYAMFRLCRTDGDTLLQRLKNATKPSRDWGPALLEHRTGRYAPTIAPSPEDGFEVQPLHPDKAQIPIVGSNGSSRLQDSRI
# Experiment: Radioligand binding assay using recombinant CHO cell membranes expressing human GlyT1
# Details: radioligand binding to human GlyT1c transporter-expressing membranes
# Excerpt: 2. Radioligand binding assays using recombinant CHO cell membranes expressing human GlyT1: […]
row,Compound,Ki
1,"Cn1cnc(S(=O)(=O)N2C[C@@H](COc3ccnc(C(F)(F)F)c3)[C@H](c3ccc(F)cc3)C2)c1 (relative stereo) [Example 366, 4-({Trans-4-(4-fluorophenyl)-1-[(1-methyl-1H-imidazol-4-yl)sulfonyl]pyrrolidin-3-yl}methoxy)-2-(trifluoromethyl)pyridine]",≤ 0.1 µM
2,"Cn1cnc(S(=O)(=O)N2C[C@@H](CNc3ccc(F)cc3)[C@H](c3ccc(F)cc3)C2)c1 (relative stereo) [Example 367, 4-Fluoro-N-({trans-4-(4-fluorophenyl)-1-[(1-methyl-1H-imidazol-4-yl)sulfonyl]pyrrolidin-3-yl}methyl)aniline]",≤ 0.1 µM
3,"Cn1cnc(S(=O)(=O)N2C[C@@H](C(=O)Nc3cc(C(F)(F)F)ccn3)[C@H](c3ccc(F)cc3)C2)c1 (relative stereo) [Example 369, Trans-4-(4-fluorophenyl)-1-[(1-methyl-1H-imidazol-4-yl)sulfonyl]-N-[4-(trifluoromethyl)pyridin-2-yl]pyrrolidine-3-carboxamide]",≤ 1 µM
4,"Cn1cnc(S(=O)(=O)N2C[C@@H](C(=O)Nc3ccc(F)c(OC(F)(F)F)c3)[C@H](c3ccc(F)cc3)C2)c1 (relative stereo) [Example 370, Trans-4-(4-fluorophenyl)-N-[4-fluoro-3-(trifluoromethoxy)phenyl]-1-[(1-methyl-1H-imidazol-4-yl)sulfonyl]pyrrolidine-3-carboxamide]",≤ 1 µM
5,"Cn1cnc(S(=O)(=O)N2C[C@@H](C(=O)Nc3ccc(Cl)c(OC(F)(F)F)c3)[C@H](c3ccc(F)cc3)C2)c1 (relative stereo) [Example 371, Trans-N-[4-chloro-3-(trifluoromethoxy)phenyl]-4-(4-fluorophenyl)-1-[(1-methyl-1H-imidazol-4-yl)sulfonyl]pyrrolidine-3-carboxamide]",≤ 1 µM
6,"CC(=O)Nc1ccc(Cl)cc1N[C@@H]1CN(S(=O)(=O)c2cn(C)cn2)C[C@H]1c1ccc(F)cc1 (relative stereo) [Example 372, N-[4-chloro-2-({Trans-4-(4-fluorophenyl)-1-[(1-methyl-1H-imidazol-4-yl)sulfonyl]pyrrolidin-3-yl}amino)phenyl]acetamide]",≤ 10 µM
7,"Cn1cnc(S(=O)(=O)N2C[C@@H](O)[C@H](Nc3cccc(Cl)c3)C2)c1 (relative stereo) [Example 373, Trans-4-[(3-chlorophenyl)amino]-1-[(1-methyl-1H-imidazol-4-yl)sulfonyl]pyrrolidin-3-ol]",≤ 10 µM
8,"Cn1cnc(S(=O)(=O)N2C[C@@H](NC(=O)C3(C(F)(F)F)CC3)[C@H](c3ccccn3)C2)c1 (relative stereo) [Example 374, N-[Trans-1-[(1-methyl-1H-imidazol-4-yl)sulfonyl]-4-(pyridin-2-yl)pyrrolidin-3-yl]-1-(trifluoromethyl)cyclopropanecarboxamide]",≥ 10 µM
9,"Cn1cnc(S(=O)(=O)N2C[C@@H](CNc3ccc(F)c(OC(F)(F)F)c3)[C@H](c3ccc(F)cc3)C2)c1 (relative stereo) [Example 376, 4-fluoro-N-({trans-4-(4-fluorophenyl)-1-[(1-methyl-1H-imidazol-4-yl)sulfonyl]pyrrolidin-3-yl}methyl)-3-(trifluoromethoxy)aniline]",≤ 1 µM
10,"Cn1cnc(S(=O)(=O)N2C[C@@H](CNc3ccc(Cl)c(OC(F)(F)F)c3)[C@H](c3ccc(F)cc3)C2)c1 (relative stereo) [Example 377, 4-chloro-N-({trans-4-(4-fluorophenyl)-1-[(1-methyl-1H-imidazol-4-yl)sulfonyl]pyrrolidin-3-yl}methyl)-3-(trifluoromethoxy)aniline]",≤ 1 µM
11,"Cn1cnc(S(=O)(=O)N2C[C@@H](Nc3cccc(Cl)c3)[C@H](Oc3ccc(F)cc3)C2)c1 (relative stereo) [Example 378, Trans-N-(3-chlorophenyl)-4-(4-fluorophenoxy)-1-[(1-methyl-1H-imidazol-4-yl)sulfonyl]pyrrolidin-3-amine]",≤ 10 µM
12,"Cn1cnc(S(=O)(=O)N2C[C@@H](Oc3cc(C(F)(F)F)ccn3)[C@H](c3ccc(F)cc3)C2)c1 (relative stereo) [Example 379, 2-({trans-4-(4-fluorophenyl)-1-[(1-methyl-1H-imidazol-4-yl)sulfonyl]pyrrolidin-3-yl}oxy)-4-(trifluoromethyl)pyridine]",≤ 0.1 µM
13,"Cn1cnc(S(=O)(=O)N2C[C@@H](N3Cc4ccc(Cl)cc4C3=O)[C@H](c3ccccn3)C2)c1 (relative stereo) [Example 381, 6-chloro-2-[Trans-1-[(1-methyl-1H-imidazol-4-yl)sulfonyl]-4-(pyridin-2-yl)pyrrolidin-3-yl]-2,3-dihydro-1H-isoindol-1-one]",≤ 10 µM
14,"Cn1cnc(S(=O)(=O)N2C[C@@H](Nc3cc(C(F)(F)F)cnn3)[C@H](c3ccc(F)cc3)C2)c1 (relative stereo) [Example 383, N-{trans-4-(4-fluorophenyl)-1-[(1-methyl-1H-imidazol-4-yl)sulfonyl]pyrrolidin-3-yl} -5 - (trifluoromethyl)pyridazin-3-amine]",≤ 1 µM
15,"Cn1cnc(S(=O)(=O)N2C[C@@H](S(=O)(=O)c3ccccc3)[C@H](c3ccccc3)C2)c1 (relative stereo) [Example 385, 1-methyl-4-{[trans-3-phenyl-4-(phenylsulfonyl)pyrrolidin-1-yl]sulfonyl}-1H-imidazole]",≤ 10 µM

# Now from value to compound:
row,Ki,Compound
1,≤ 10 µM,"Cn1cnc(S(=O)(=O)N2C[C@@H](Nc3cccc(Cl)c3)[C@H](OCc3ccccc3)C2)c1 (relative stereo) [Example 400, Trans-4-(benzyloxy)-N-(3-chlorophenyl)-1-[(1-methyl-1H-imidazol-4-yl)sulfonyl]pyrrolidin-3-amine]"
2,≤ 10 µM,"C=CCO[C@@H]1CN(S(=O)(=O)c2cn(C)cn2)C[C@H]1Nc1cccc(Cl)c1 (relative stereo) [Example 402, Trans-N-(3-chlorophenyl)-1-[(1-methyl-1H-imidazol-4-yl)sulfonyl]-4-(prop-2-en-1-yloxy)pyrrolidin-3-amine]"
3,≤ 0.1 µM,"C=C(C)CO[C@@H]1CN(S(=O)(=O)c2cn(C)cn2)C[C@H]1Nc1cccc(Cl)c1 (relative stereo) [Example 403, Trans-N-(3-chlorophenyl)-1-[(1-methyl-1H-imidazol-4-yl)sulfonyl]-4-[(2-methylprop-2-en-1-yl)oxy]pyrrolidin-3-amine]"
4,≤ 10 µM,"Cn1cnc(S(=O)(=O)N2C[C@@H](N3Cc4cc(C(F)(F)F)ccc4NC3=O)[C@H](c3ccccc3)C2)c1 (relative stereo) [Example 404, 3-{Trans-1-[(1-methyl-1H-imidazol-4-yl)sulfonyl]-4-phenylpyrrolidin-3-yl}-6-(trifluoromethyl)-3,4-dihydroquinazolin-2(1H)-one]"
5,≤ 1 µM,"CC(C)CO[C@@H]1CN(S(=O)(=O)c2cn(C)cn2)C[C@H]1Nc1cccc(Cl)c1 (relative stereo) [Example 412, Trans-N-(3-chlorophenyl)-1-[(1-methyl-1H-imidazol-4-yl)sulfonyl]-4-(2-methylpropoxy)pyrrolidin-3-amine]"
6,≤ 0.01 µM,"Cn1cnc(S(=O)(=O)N2C[C@@H](Nc3cccc(OC(F)(F)F)c3)[C@H](C3CCCCC3)C2)c1 (relative stereo) [Example 425, Trans-4-cyclohexyl-1-[(1-methyl-1H-imidazol-4-yl)sulfonyl]-N-[3-(trifluoromethoxy)phenyl]pyrrolidin-3-amine]"
7,≤ 10 µM,"CC(C)(C)OC(=O)N[C@@H]1CN(S(=O)(=O)c2ccccc2C#N)C[C@H]1c1ccccc1 (relative stereo) [Example 523, tert-butyl {trans-1-[(2-cyanophenyl)sulfonyl]-4-phenylpyrrolidin-3-yl}carbamate]"
8,≤ 10 µM,"CC(C)(C)OC(=O)N[C@@H]1CN(S(=O)(=O)c2ccccc2C#N)C[C@H]1c1ccc(F)cc1 (relative stereo) [Example 524, tert-butyl [trans-1-[(2-cyanophenyl)sulfonyl]-4-(4-fluorophenyl)pyrrolidin-3-yl]carbamate]"
9,≤ 10 µM,"N#Cc1ccccc1S(=O)(=O)N1C[C@@H](Nc2cc(C(F)(F)F)ccn2)[C@H](c2ccccc2)C1 (relative stereo) [Example 525, 2-{[trans-3-phenyl-4-{[4-(trifluoromethyl)pyridin-2-yl]amino}pyrrolidin-1-yl]sulfonyl}benzonitrile]"
10,≤ 10 µM,"NC(=O)c1ccccc1S(=O)(=O)N1C[C@@H](Nc2cc(C(F)(F)F)ccn2)[C@H](c2ccccc2)C1 (relative stereo) [Example 526, 2-{[trans-3-phenyl-4-{[4-(trifluoromethyl)pyridin-2-yl]amino}pyrrolidin-1-yl]sulfonyl}benzamide]"
11,≤ 10 µM,"N#Cc1ccccc1S(=O)(=O)N1C[C@@H](N)[C@H](c2ccccc2)C1 (relative stereo) [Example 527, 2-(Trans-3-amino-4-phenylpyrrolidin-1-ylsulfonyl)benzonitrile]"
12,> 10 µM,"N#Cc1ccccc1S(=O)(=O)N1C[C@@H](Nc2cccc(Cl)c2)[C@H](c2ccccc2)C1 (relative stereo) [Example 528, 2-({Trans-3-[(3-chlorophenyl)amino]-4-phenylpyrrolidin-1-yl}sulfonyl)benzonitrile]"
